Our source for the relative viability values is the supplement of paper PMC10307832.

What all share (assay): relative viability (nuclei count vs DMSO), 5 days (fraction); higher = more cells survive
Compound in the experiment “Tosedostat + Phenformin”: CC(C)C[C@@H](C(=O)N[C@H](C(=O)OC1CCCC1)c1ccccc1)[C@H](O)C(=O)NO [Tosedostat] + N=C(N)NC(=N)NCCc1ccccc1 [Phenformin] (partner 250 µM)
In outline:
(§1)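 Lung cancer cell lines in 1536-well plates were dosed by pin tool the day after seeding, either with one drug alone or with a fixed anchor-drug dose plus five library-drug doses (not always all listed) in √10 steps. After 5 days, cells were fixed and their nuclei stained in one step (final 0.05% Triton X-100, 1% formaldehyde, 1 ug/ml Hoechst), then counted on 4× images. Relative viability is the nuclei count in treated wells divided by that in vehicle wells. Values are medians of duplicate plates.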

Compound in the experiment “Tosedostat + Luminespib”: CC(C)C[C@@H](C(=O)N[C@H](C(=O)OC1CCCC1)c1ccccc1)[C@H](O)C(=O)NO [Tosedostat] + CCNC(=O)c1noc(-c2cc(C(C)C)c(O)cc2O)c1-c1ccc(CN2CCOCC2)cc1 [Luminespib] (partner 0.01 µM)
In outline:
as §1

Compound in the experiment “Tosedostat + Palbociclib”: CC(C)C[C@@H](C(=O)N[C@H](C(=O)OC1CCCC1)c1ccccc1)[C@H](O)C(=O)NO [Tosedostat] + CC(=O)c1c(C)c2cnc(Nc3ccc(N4CCNCC4)cn3)nc2n(C2CCCC2)c1=O [Palbociclib] (partner 0.5 µM)
Summed up:
as §1

Compound in the experiment “Tosedostat + Alpelisib”: CC(C)C[C@@H](C(=O)N[C@H](C(=O)OC1CCCC1)c1ccccc1)[C@H](O)C(=O)NO [Tosedostat] + Cc1nc(NC(=O)N2CCC[C@H]2C(N)=O)sc1-c1ccnc(C(C)(C)C(F)(F)F)c1 [Alpelisib] (partner 2 µM)
Summed up: as §1

UMC-11: the relative viability with Tosedostat + Phenformin (first compound 0.02 µM) worked out at 0.353; with Tosedostat + Phenformin (first compound 0.06325 µM), 0.328; with Tosedostat + Phenformin (first compound 0.2 µM), 0.298; with Tosedostat + Phenformin (first compound 0.6325 µM), 0.282; with Tosedostat + Phenformin (first compound 2 µM) it was 0.278; with Tosedostat + Luminespib (first compound 0.02 µM), 1.01. In addition, the relative viability in the experiment with Tosedostat + Luminespib (first compound 0.06325 µM) worked out at 0.999; with Tosedostat + Luminespib (first compound 0.2 µM), 1.03; with Tosedostat + Luminespib (first compound 0.6325 µM), 0.977; with Tosedostat + Luminespib (first compound 2 µM), 1.12; with Tosedostat + Palbociclib (first compound 0.02 µM) it was 0.339; in the experiment with Tosedostat + Palbociclib (first compound 0.06325 µM), 0.341. Further, the relative viability was 0.299 with Tosedostat + Palbociclib (first compound 0.2 µM); 0.362 with Tosedostat + Palbociclib (first compound 0.6325 µM); 0.338 in the experiment with Tosedostat + Palbociclib (first compound 2 µM); 0.962 with Tosedostat + Alpelisib (first compound 0.02 µM); 0.87 in the experiment with Tosedostat + Alpelisib (first compound 0.06325 µM); 0.957 with Tosedostat + Alpelisib (first compound 0.2 µM). Besides, the relative viability in the experiment with Tosedostat + Alpelisib (first compound 0.6325 µM) was 0.942; with Tosedostat + Alpelisib (first compound 2 µM), 1.03.
